# Reference: patent US20240344128A1, “IDENTIFICATION AND ELIMINATION OF DAMAGED AND/OR SENESCENT CELLS” (FUNDACIÓN DEL SECTOR PÜBLICO ESTATAL CENTRO NACIONAL DE …, priority 2017, published 2024)
# Tests used:
# SK-Mel-103 cells = experiment: 53BP1 immunofluorescence (DNA double-strand breaks); type: cell-based, human; conditions: 7 days
# Method: SK-Mel-103 cells were seeded at 50% confluency on round 12 mm diameter coverslips (Marienfeld #0111520) previously placed inside 24 well plates. The following day, cells were treated with the senescence-inducing agents: 2 μM Palbociclib, […], 1 μM Nutlin and 6×10^−3 units/ml Bleomycin. Treated cells were not further split and their media was not changed for the duration of the treatment (7 days). Control cells were seeded similarly to treated, cells 24-48 hours prior the beginning of the procedure. Seven days after addition of the senescence-inducing agents, control and treated cells were washed with 1×PBS and Fixed on 2% paraformaldehyde-PBS for 10 minutes. The cells were then permeabilized with 0.25% Triton-PBS for 5 minutes, washed twice with 1×PBS and blocked with 5% BSA-PBS for 30 minutes. Next, the cells were incubated for 30 minutes with anti-53BP1 antibody (Abcam #ab172580) previously diluted 1:100 in blocking buffer (5% BSA-PBS), washed 3 times for 10 minutes with 1X PBS and incubated in the dark for 30 additional minutes with the secondary antibody: goat anti-rabbit Alexa Fluor 546 (ThermoFisher #A-11010) diluted 1:400 in blocking buffer. Finally, the cells were washed again 3 times for 10 minutes with 1×PBS and incubated with DAPI (Sigma #D9542) 300 nM in 1×PBS for 10 minutes. All the incubations and washed were performed at room temperature in 24 well plates. […]
# [1] = system: SK-Mel-103, UT-SCC-38 and UT-SCC-42B cells; experiment: SA-β gal / senescent response in human tumor cell lines; type: cell-based; conditions: SK-Mel-103 cells, 7 days
# Method: SK-Mel-103, UT-SCC-38 and UT-SCC-42B the cell lines were maintained in DMEM (Gibco) supplemented with 10% fetal bovine serum (Gibco) with antimycotic-antibiotic (Gibco), and incubated in 20% O2 sand 5% CO2 at 37° C. SK-Mel-103 and UT-SCC-42B cells were split 1:10 every 3-4 days. UT-SCC-38 were split 1:3 every 3-4 days.
# Eight days before the assay 20.000 SK-Mel-103 cells and 40.000 UT-SCC-38 and UT-SCC-42B cells were seeded into 6 well tissue culture plates (Falcon). The next day cells were treated with 2 μM Palbociclib. SK-Mel-103 cells were also treated with 10 nM Doxorubicin, 1 μM Nutlin or 6×10^−3 units/ml Bleomycin. All the cells were incubated in the presence of the senescence-inducing agents for at least 7 days without changing the media. Control cells were seeded in 6 well plates 24-48 hours prior the SA-β gal assay.
# SA-β galactosidase activity was assessed with the β-Galactosidase Staining Kit from Cell Signaling (#9860) following the manufactured instructions with one single variation: the pH of the “Staining Solution” (supplemented with buffers A and B and X-gal) was carefully adjusted to 6.
# PD-L2 mRNA [2] = experiment: PD-L1 and PD-L2 mRNA by quantitative RT-PCR in human tumor cell lines; type: cell-based; conditions: SK-Mel-103 cells, 7 days
# Method: Treated cells were not further split and their media was not changed for the duration of the treatment. Control cells were split every 3-4 days as previously described. One week after the start of the treatment, total RNA was isolated from control and treated cells with TRI Reagent (Sigma-Aldrich #T9424) following the manufacturer instructions. The isolated RNA was quantified using a nanodrop machine NanoVue (GE Healthcare). cDNA synthesis was performed with 2-7 μg of total RNA using the “iScript Advanced cDNA Synthesis kit” from BIO-RAD (#1725037). Quantitative real-time PCR was carried out with diluted cDNA (1:10) and “GoTaq qPCR Master Mix” (Promega A6002). Reactions were performed in triplicate in a 15 μl volume reaction mix prepared as follow: 7.5 μl 2X GoTaq qPCR Master Mix; 0.6 μl of pre-mixed primers (10 μM forward primer and 10 μM reverse primer); 1.9 μl nuclease-free water and 5 μl template cDNA (previously diluted 1:10). The qRT-PCR reaction was performed on a 7500 Fast Real-Time PCR System (Applied Biosystems) using “MicroAmp Fast Optical 96-well reaction plate with barcode” (Thermo Fisher #4346906) and “MicroAmp Optical adhesive film” (Thermo Fisher #4311971). […]
# PD-L2 mRNA [3] = experiment: Doxorubicin-induced PD-L2 mRNA in C2C12 cells with enzymatic inhibitors; type: cell-based, mouse; conditions: 500 nM doxorubicin, 48 hours
# Method: C2C12 cells (FIG. 9) were treated with 500 nM doxorubicin for 48 hours in the presence or absence of the following inhibitors at the indicated concentrations: IKKi (50 μM), PIMi (1 μM), rotenone (1 μM), JAKi (3 μM), rapamycin (50 nM) and metformin (5 mM) or cultured in pyruvate-depleted media (FIG. 9A). In addition, C2C12 cells were incubated for 6 hours in the presence or absence of TLRs agonists (Mouse TLR1-9 Agonist kit. Invivogen): TLR1/2 agonist (Pam3CSK4, 300 ng/ml), TLR2 agonist (HKLM, 10^8 cells/ml), TLR3 agonist (Poly (I:C) HMW and Poly (I:C) LMW, 10 μg/ml), TLR4 agonist (LPS-EK, 10 μg/ml), TRL5 agonist (FLA-ST, 1 μg/ml), TRL6/2 agonist (FSL-1, 100 ng/ml), TRL7 agonist (ssRNA40, 5 μg/ml) and TLR9 agonist (ODN1826, 5 μM). Total RNA was isolated using TRI Reagent (Sigma-Aldrich #T9424) according to the manufacturer's instructions.
# (§1) The isolated RNA was quantified using a nanodrop machine NanoVue (GE Healthcare). cDNA synthesis was performed with 2-7 μg of total RNA using the “iScript Advanced cDNA Synthesis kit” from BIO-RAD (#1725037). Quantitative real-time PCR was carried out with diluted cDNA (1:10) and “GoTaq qPCR Master Mix” (Promega A6002). Reactions were performed in triplicate in a 15 μl volume reaction mix prepared as follow: 7.5 μl 2X GoTaq qPCR Master Mix; 0.6 μl of pre-mixed primers (10 μM forward primer and 10 μM reverse primer); 1.9 μl nuclease-free water and 5 μl template cDNA (previously diluted 1:10).
# The qRT-PCR reaction was performed on a 7500 Fast Real-Time PCR System (Applied Biosystems) using “MicroAmp Fast Optical 96-well reaction plate with barcode” (Thermo Fisher #4346906) and “MicroAmp Optical adhesive film” (Thermo Fisher #4311971). The reaction consisted in two holding stages (50° C. for 2:00 min and 95° C. for 10:00 min) and 40 amplification reactions (95° C. for 00:15 min/60° C. for 01:00 min/72° C. for 00:30 min) followed by a Melt Curve Stage.
# The Ct values of the genes of interest were averaged and normalized to the housekeeping gene β-actin. For each cell line and condition at least two independent experiments were performed.
# PD-L2 mRNA [4] = experiment: PD-L1 and PD-L2 mRNA by quantitative RT-PCR in mouse cell lines after 48 hours of genotoxic drugs; type: cell-based; conditions: C2C12, HcMel3 and HcMel13 cells
# Method: C2C12, HcMel3 and HcMel12 (FIG. 3) were treated with 12×10^−3 units/ml bleomycin or doxorubicin 500 nM (C2C12) or 167 nM (HcMel3 and HcMel12) for 48 hours. Total RNA was isolated using TRI Reagent (Sigma-Aldrich #T9424) according to the manufacturer's instructions.
# as §1
# The qRT-PCR reaction was performed on a 7500 Fast Real-Time PCR System (Applied Biosystems) using “MicroAmp Fast Optical 96-well reaction plate with barcode” (Thermo Fisher #4346906) and “MicroAmp Optical adhesive film” (Thermo Fisher #4311971). The reaction consisted in two holding stages (50° C. for 2:00 min and 95° C. for 10:00 min) and 40 amplification reactions (95° C. for 00:15 min/60° C. for 01:00 min/72° C. for 00:30 min) followed by a Melt Curve Stage. […]
# senescent cells = conditions: cited from earlier work; for elimination of senescent cells: literature reports
# lungs = experiment: Bleomycin-induced lung fibrosis in C57BL6 mice; type: in vivo, mouse; conditions: single intratracheal dose, 14 days
# Method: SA-β galactosidase activity was assessed in whole mount lungs (FIG. 5A) and xenografts (FIG. 6B) using the Senescence β-Galactosidase Staining Kit (Cell Signaling #9860). Lungs were fixed for 45 minutes with a solution containing 2% formaldehyde and 0.2% glutaraldehyde in PBS for 45 minutes and washed three times with PBS. Fixed tissues were subsequently stained overnight (16 hours) with X-gal staining solution (adjusted to pH 6.0).
# For gene expression analysis lungs were isolated and embedded in optimal cutting temperature (OCT) compound (Leica Biosystems). To obtain total RNA of OCT embedded tissue samples, 10 cryostat sections of 10 μm thickness were cut and excess OCT were removed. Cryosections were lysed in TRI Reagent (Sigma-Aldrich #T9424), pooled and processed according to manufacturer's instructions. cDNA was synthesized using 2 μg of total RNA. cDNA synthesis and RT-qPCR were performed as previously described. The Ct values of the genes of interest were averaged and normalized to the housekeeping gene Gapdh.
# Lung fibrosis was induced in C57BL6 mice (ENVIGO) by intratracheal delivery of a single dose of bleomycin (1.5 U/kg) or vehicle (PBS). 14 days after intratracheal injection, lung samples of vehicle (control) or bleomycin (fibrotic)-treated mice were collected for the analysis of SA-β gal activity and gene expression.
# PD-L2 mRNA [5] = experiment: PD-L2 mRNA in mouse melanoma cell lines B16F1 and B16F10; type: cell-based; conditions: B16F1 and B16F10 cells; data not shown
molecule,measurement,setting,value
Nutlin,DNA damage (53BP1 foci),SK-Mel-103 cells,absence of 53BP1 foci in the chromatin
same,induction of senescence,[1],induce senescence in the SK-Mel-103 cells
same,PD-L2 mRNA levels,PD-L2 mRNA [2],had a similar effect on PD-L2 mRNA levels
"Fc1cc(-c2cccc3ncc(-c4cnn(C5CCNCC5)c4)nc23)cc(F)c1CN1CCOCC1 [JAK inhibitor, NVP-BSK805]",PD-L2 induction,PD-L2 mRNA [3],prevented PD-L2 induction
CN(C)C(=N)N=C(N)N [metformin],PD-L2 induction,PD-L2 mRNA [3],prevented PD-L2 induction
"COc1cccc2c1C(=O)c1c(O)c3c(c(O)c1C2=O)C[C@@](O)(C(=O)CO)C[C@@H]3O[C@H]1C[C@H](N)[C@H](O)[C@H](C)O1 [doxorubicin, Doxorubicin]",PD-L2 mRNA,PD-L2 mRNA [4],dramatic increase in PD-L2 mRNA
"Cc1ccc(S(=O)(=O)/C=C/C#N)cc1 [NFkB inhibitor, BAY 11-7082]",PD-L2 induction,PD-L2 mRNA [3],prevented PD-L2 induction
CC1(C)CCC(c2ccc(Cl)cc2)=C(CN2CCN(c3ccc(C(=O)NS(=O)(=O)c4ccc(N[C@H](CCN5CCOCC5)CSc5ccccc5)c(S(=O)(=O)C(F)(F)F)c4)cc3)CC2)C1 [Navitoclax],elimination of senescent cells,senescent cells,efficiently eliminate senescent cells in vitro and in vivo
O=c1c(O)c(-c2ccc(O)c(O)c2)oc2cc(O)cc(O)c12 [Quercetin],number of damaged and/or senescent cells,"senescent cells; Dasatinib and Quercetin used in combination, aged, progeroid and irradiation-exposed mice",reduced the number of damaged and/or senescent cells
C=C(C)[C@H]1Cc2c(ccc3c2O[C@@H]2COc4cc(OC)c(OC)cc4[C@@H]2C3=O)O1 [rotenone],PD-L2 induction,PD-L2 mRNA [3],prevented PD-L2 induction
Bleomycin,DNA damage (53BP1 foci),SK-Mel-103 cells,exhibited nuclear 53-BP1 foci
same,induction of senescence,[1],induce senescence in the SK-Mel-103 cells
same,PD-L2 mRNA,PD-L2 mRNA [4],dramatic increase in PD-L2 mRNA
same,senescent cells (SA-β galactosidase positive staining) in whole fibrotic lungs,lungs,accumulation of senescent cells
same,PD-L2 and PD-L1 mRNA in fibrotic organs,lungs; lung,"significant and specific up-regulation of PD-L2 mRNA, but not of PD-L1 mRNA"
same,PD-L2 mRNA levels,PD-L2 mRNA [2],had a similar effect on PD-L2 mRNA levels
same,PD-L2 mRNA,PD-L2 mRNA [5],PD-L2 mRNA up-regulation
CN(C)CC[C@H](CSc1ccccc1)Nc1ccc(S(=O)(=O)NC(=O)c2ccc(N3CCN(Cc4ccccc4-c4ccc(Cl)cc4)CC3)cc2)cc1[N+](=O)[O-] [ABT-737],elimination of senescent cells,senescent cells,selectively eliminate senescent cells
